Common to all, as to format: physicochemical
Data set [1] in a line: Tapped density (PT-TD200 Tap Density Tester). As to conditions: after mechanical tapping. Here is the method: On the other hand, tapped density, also called compacted density, of a powder is the ratio of the mass of the powder to the volume occupied by the powder after it has been tapped for a defined period of time. Tapped density is measured by first gently introducing a known sample mass into a graduated cylinder and carefully levelling the powder without compacting it. The cylinder is then mechanically tapped by raising the cylinder and allowing it to drop under its own weight using a suitable mechanical tapped density tester that provides a suitable fixed drop distance and nominal drop rate Bulk density and tapped density can be measured according to the method disclosed in the European Pharmacopoeia section 2.9.34 (Bulk density and tapped density of powders), for example, the bulk density may be measured using the PT-SV100 Scott Volumeter and the tapped density may be measured using the PT-TD200 Tap Density Tester (Pharma Test Apparatebau AG, Germany). The bulk density was measured using a PT-SV100 Scott Volumeter (Pharma Test) and the tapped density was measured using a PT-TD200 Tap Density Tester (Pharma Test).

Data set [2] is described as follows: Carr index (compressibility index), powder flowability. As to conditions: for Compressibility (Carr Index): calculated from bulk and tapped density; for Flowability (type of flow according to Table 1): classification by Carr index / Hausner ratio. Here is the method:
The Carr index, also called Carr's index or compressibility index, is calculated according to the following formula: Free flowing powders have smaller values of the Carr index than poor flowing powders. In general, a Carr index greater than 25 is considered to be an indication of poor flowability, and below 15, of good flowability. The relationship between Carr index and/or Hausner ratio with powder flowability is well recognized in the art, for example, as disclosed by M. E. Aulton, in “Powder flow”, chapter 12 of the well-recognized reference book in pharmaceutical technology “Aulton's Pharmaceutics. The design and manufacture of medicines”, Fifth Edition 2018, M. E. Aulton and K. M. G. Taylor, Editors, Elsevier Ltd, as summarized in Table 1: Carr index was calculated from the bulk and tapped density measured values, using the following formula: […]

A short description of data set [3]: Hausner ratio, powder flowability. As to conditions: calculated from bulk and tapped density. The protocol:
Hausner ratio is also predictive of powder flow, and is calculated according to the following formula: In this case, a Hausner ratio greater than 1.34 is generally considered to be an indication of poor flowability. The relationship between Carr index and/or Hausner ratio with powder flowability is well recognized in the art, for example, as disclosed by M. E. Aulton, in “Powder flow”, chapter 12 of the well-recognized reference book in pharmaceutical technology “Aulton's Pharmaceutics. The design and manufacture of medicines”, Fifth Edition 2018, M. E. Aulton and K. M. G. Taylor, Editors, Elsevier Ltd, as summarized in Table 1: Hausner ratio was also calculated using bulk and tapped density values, according to the following formula: […]

Data set [4] can be described thus: Angle of repose. As to conditions: tan^-1 (height/radius) of cone after pouring. An excerpt:
The “angle of repose” is another parameter for indirectly quantifying powder flowability. It is the angle at which a material will rest on a stationary heap, specifically, is the angle formed by the heap slope and the horizontal plane. It may be calculated by different methods, commonly, just pouring the material on a flat surface. It also can be calculated as “drained angle of repose”, as the angle measured on the internal conical face of a material which has been formed when drained from an orifice of a flat-bottomed container to the horizontal. A dynamic angle of repose can also be used, which is the angle to the horizontal of the free surface formed in a relatively slowly rotating drum (Aulton, op. cit., pg. 197). In this case, the lower the value of the angle of repose, the higher the flowability of the material. It is generally considered that an angle of repose higher than 45 correlates with poor flowability, whereas an angle of repose under 30 correlates with excellent flowability. The angle of repose was determined by measuring the radius and the height of the cone formed after pouring the powder, using the formula tan^−1 (height/radius).

A short description of data set [5]: Bulk density (PT-SV100 Scott Volumeter). The note with it: after roller compaction vs starting non-compacted quercetin. An excerpt: The bulk density, also called apparent density, can be defined as the ratio of the mass to the volume of an untapped powder sample, as “poured”. The bulk density is given in grams per millilitre (g/ml) and is typically calculated by “pouring” a known mass of powder into a graduated cylinder. Bulk density and tapped density can be measured according to the method disclosed in the European Pharmacopoeia section 2.9.34 (Bulk density and tapped density of powders), for example, the bulk density may be measured using the PT-SV100 Scott Volumeter and the tapped density may be measured using the PT-TD200 Tap Density Tester (Pharma Test Apparatebau AG, Germany). The bulk density was measured using a PT-SV100 Scott Volumeter (Pharma Test) and the tapped density was measured using a PT-TD200 Tap Density Tester (Pharma Test).

The nature of data set [6]: Solubility compared to non-compacted quercetin. The note with it: compared to standard. From the text:
It is advantageous, as the poor solubility of quercetin is one of the drawbacks of this substance, as it impairs its biological availability and, consequently, its therapeutic activity.

In data set [1], `O=c1c(O)c(-c2ccc(O)c(O)c2)oc2cc(O)cc(O)c12` [Non-compacted quercetin, 3,3′,4′,5,7-pentahydroxyflavone, reference compound] gave a Tapped density of 0.44 g/mL. For the same compound, in data set [2], the “Compressibility (Carr Index)” value was 52.27 and the “Flowability (type of flow according to Table 1)” value is “very, very poor”. In addition, the Hausner ratio in data set [3] is on record as 2.10. Moreover, the Angle of repose in data set [4] is given as >45°.
In the case of `O=c1c(O)c(-c2ccc(O)c(O)c2)oc2cc(O)cc(O)c12` [Compacted quercetin, 3,3′,4′,5,7-pentahydroxyflavone], the “Increase of bulk density” value in data set [5] is on record as “about 200%”. The compound further displayed a Tapped density in data set [1] of 0.71 g/mL. For the same compound, in data set [2], the “Compressibility (Carr Index)” value is 8.45 and the “Flowability (type of flow according to Table 1)” value was “excellent”. Besides, the Hausner ratio in data set [3] is given as 1.09. The Angle of repose in data set [4] was 25-30°. Moreover, in data set [6], the Solubility result is on record as “improved”.
